Data taken from ChEMBL document CHEMBL3885861, “Open TG-GATES”.

Organism: Rattus norvegicus
Assay: Open TG-GATES - Regimen: Daily Repeat
Format: toxicity, organism-based, Sprague-Dawley
Set-up: regimen Daily Repeat, gender Male, age 6 weeks
Conditions: in vivo, po, 30 mg/kg, route gavage, dose level Low; for APTT / Bas / Eos / Fbg / Hb / Ht / Lym / MCH / MCHC / MCV / Mono / Neu / PT / Plat / RBC / Ret / WBC: tissue Blood; for KIDNEY_L / KIDNEY_R / KIDNEY_TOTAL: tissue Kidney; for LIVER: tissue Liver; for A/G / ALP / ALT / AST / BUN / CRE / Ca / Cl / DBIL / GLC / IP / K / LDH / Na / PL / RALB / TBIL / TC / TG / TP / gamma-GTP: tissue Plasma

For `CCOC(=O)C(C)(C)Oc1ccc(Cl)cc1` [CLOFIBRATE], the TERMINAL_BW (72 h, time 3 day) was 242 g, the APTT (72 h, time 3 day) was 20.9 s and the Bas (72 h, time 3 day) was 0%. For the same compound, the Eos (72 h, time 3 day) was 1%, the Fbg (72 h, time 3 day) was 226 mg/dL and the Hb (72 h, time 3 day) was 13.3 g/dL. It also gave a Ht (72 h, time 3 day) of 38%, a Lym (72 h, time 3 day) of 80.8% and an MCH (72 h, time 3 day) of 21.4 pg. The MCHC (72 h, time 3 day) was 35%, the MCV (72 h, time 3 day) was 61.1 fL and the Mono (72 h, time 3 day) was 3.2%. It also gave a Neu (72 h, time 3 day) of 15%, a PT (72 h, time 3 day) of 12.5 s and a Plat (72 h, time 3 day) of 131.1 x10_4/uL. For the same compound, the RBC (72 h, time 3 day) was 622.4 x10_4/ul, the Ret (72 h, time 3 day) was 5% and the WBC (72 h, time 3 day) was 108.6 x10_2/uL. The KIDNEY_L (72 h, time 3 day) was 1 g, the KIDNEY_R (72 h, time 3 day) was 1 g and the KIDNEY_TOTAL (72 h, time 3 day) was 2.1 g. The LIVER (72 h, time 3 day) was 12 g, the A/G (72 h, time 3 day) was 1.6 and the ALP (72 h, time 3 day) was 1135 IU/L. The ALT (72 h, time 3 day) was 42.4 IU/L, the AST (72 h, time 3 day) was 72.2 IU/L and the BUN (72 h, time 3 day) was 14.8 mg/dL. For the same compound, the CRE (72 h, time 3 day) was 0.4 mg/dL, the Ca (72 h, time 3 day) was 10.9 mg/dL and the Cl (72 h, time 3 day) was 102 meq/L. The DBIL (72 h, time 3 day) was 0.098 mg/dL, the GLC (72 h, time 3 day) was 200.8 mg/dL and the IP (72 h, time 3 day) was 6.3 mg/dL. For the same compound, the K (72 h, time 3 day) was 4 meq/L, the LDH (72 h, time 3 day) was 265.2 IU/L and the Na (72 h, time 3 day) was 140.2 meq/L. For the same compound, the PL (72 h, time 3 day) was 141 mg/dL, the RALB (72 h, time 3 day) was 3.4 g/dL and the TBIL (72 h, time 3 day) was 0.1 mg/dL. It also gave a TC (72 h, time 3 day) of 67.6 mg/dL, a TG (72 h, time 3 day) of 112.2 mg/dL and a TP (72 h, time 3 day) of 5.6 g/dL. For the same compound, the gamma-GTP (72 h, time 3 day) was 0.6 IU/L, the TERMINAL_BW ([…], time 7 day) was 265.8 g and the TERMINAL_BW ([…], time 14 day) was 333.8 g. It also gave a TERMINAL_BW ([…], time 28 day) of 411.4 g, an APTT ([…], time 7 day) of 20.2 s and a Bas ([…], time 7 day) of 0%. For the same compound, the Eos ([…], time 7 day) was 0.8%, the Fbg ([…], time 7 day) was 223.4 mg/dL and the Hb ([…], time 7 day) was 14.1 g/dL. The Ht ([…], time 7 day) was 39.7%, the Lym ([…], time 7 day) was 82% and the MCH ([…], time 7 day) was 21.9 pg. The MCHC ([…], time 7 day) was 35.5%, the MCV ([…], time 7 day) was 61.6 fL and the Mono ([…], time 7 day) was 2.6%. It also gave a Neu ([…], time 7 day) of 14.2%, a PT ([…], time 7 day) of 12 s and a Plat ([…], time 7 day) of 124.1 x10_4/uL. The RBC ([…], time 7 day) was 643.8 x10_4/ul, the Ret ([…], time 7 day) was 4.4% and the WBC ([…], time 7 day) was 88.1 x10_2/uL. It also gave an APTT ([…], time 14 day) of 20.1 s, a Bas ([…], time 14 day) of 0% and an Eos ([…], time 14 day) of 1%. For the same compound, the Fbg ([…], time 14 day) was 219.4 mg/dL, the Hb ([…], time 14 day) was 13.9 g/dL and the Ht ([…], time 14 day) was 40.8%. It also gave a Lym ([…], time 14 day) of 78.4%, an MCH ([…], time 14 day) of 20 pg and an MCHC ([…], time 14 day) of 34%. The MCV ([…], time 14 day) was 58.9 fL, the Mono ([…], time 14 day) was 3.2% and the Neu ([…], time 14 day) was 17.2%. For the same compound, the PT ([…], time 14 day) was 12.3 s, the Plat ([…], time 14 day) was 131 x10_4/uL and the RBC ([…], time 14 day) was 694.6 x10_4/ul. It also gave a Ret ([…], time 14 day) of 4.8%, a WBC ([…], time 14 day) of 146.7 x10_2/uL and an APTT ([…], time 28 day) of 20.8 s. It also gave a Bas ([…], time 28 day) of 0%, an Eos ([…], time 28 day) of 1% and a Fbg ([…], time 28 day) of 222 mg/dL. For the same compound, the Hb ([…], time 28 day) was 14.8 g/dL, the Ht ([…], time 28 day) was 42.7% and the Lym ([…], time 28 day) was 81.8%. For the same compound, the MCH ([…], time 28 day) was 18.5 pg, the MCHC ([…], time 28 day) was 34.7% and the MCV ([…], time 28 day) was 53.4 fL. The Mono ([…], time 28 day) was 2.6%, the Neu ([…], time 28 day) was 14.2% and the PT ([…], time 28 day) was 12.4 s. It also gave a Plat ([…], time 28 day) of 119.1 x10_4/uL, an RBC ([…], time 28 day) of 800 x10_4/ul and a Ret ([…], time 28 day) of 2.2%. The WBC ([…], time 28 day) was 140.9 x10_2/uL, the KIDNEY_L ([…], time 7 day) was 1.1 g and the KIDNEY_R ([…], time 7 day) was 1.1 g. For the same compound, the KIDNEY_TOTAL ([…], time 7 day) was 2.2 g, the KIDNEY_L ([…], time 14 day) was 1.3 g and the KIDNEY_R ([…], time 14 day) was 1.3 g. For the same compound, the KIDNEY_TOTAL ([…], time 14 day) was 2.6 g, the KIDNEY_L ([…], time 28 day) was 1.5 g and the KIDNEY_R ([…], time 28 day) was 1.5 g. For the same compound, the KIDNEY_TOTAL ([…], time 28 day) was 3 g, the LIVER ([…], time 7 day) was 12.4 g and the LIVER ([…], time 14 day) was 16 g. For the same compound, the LIVER ([…], time 28 day) was 16.9 g, the A/G ([…], time 7 day) was 1.6 and the ALP ([…], time 7 day) was 883.2 IU/L. For the same compound, the ALT ([…], time 7 day) was 35.8 IU/L, the AST ([…], time 7 day) was 72 IU/L and the BUN ([…], time 7 day) was 16 mg/dL. For the same compound, the CRE ([…], time 7 day) was 0.4 mg/dL, the Ca ([…], time 7 day) was 10.4 mg/dL and the Cl ([…], time 7 day) was 103.2 meq/L. For the same compound, the DBIL ([…], time 7 day) was 0.07 mg/dL, the GLC ([…], time 7 day) was 213 mg/dL and the IP ([…], time 7 day) was 6.8 mg/dL. For the same compound, the K ([…], time 7 day) was 3.5 meq/L, the LDH ([…], time 7 day) was 245 IU/L and the Na ([…], time 7 day) was 141.4 meq/L. For the same compound, the PL ([…], time 7 day) was 127 mg/dL, the RALB ([…], time 7 day) was 3.6 g/dL and the TBIL ([…], time 7 day) was 0.1 mg/dL. The TC ([…], time 7 day) was 60 mg/dL, the TG ([…], time 7 day) was 96 mg/dL and the TP ([…], time 7 day) was 5.8 g/dL. It also gave a gamma-GTP ([…], time 7 day) of 0.8 IU/L, an A/G ([…], time 14 day) of 1.4 and an ALP ([…], time 14 day) of 845.6 IU/L. The ALT ([…], time 14 day) was 32.4 IU/L, the AST ([…], time 14 day) was 56.8 IU/L and the BUN ([…], time 14 day) was 16.4 mg/dL. For the same compound, the CRE ([…], time 14 day) was 0.4 mg/dL, the Ca ([…], time 14 day) was 10.4 mg/dL and the Cl ([…], time 14 day) was 101.4 meq/L. It also gave a DBIL ([…], time 14 day) of 0.088 mg/dL, a GLC ([…], time 14 day) of 229.8 mg/dL and an IP ([…], time 14 day) of 7 mg/dL. For the same compound, the K ([…], time 14 day) was 4 meq/L, the LDH ([…], time 14 day) was 183.4 IU/L and the Na ([…], time 14 day) was 140.2 meq/L. It also gave a PL ([…], time 14 day) of 145.6 mg/dL, an RALB ([…], time 14 day) of 3.4 g/dL and a TBIL ([…], time 14 day) of 0.1 mg/dL. For the same compound, the TC ([…], time 14 day) was 64.8 mg/dL, the TG ([…], time 14 day) was 135 mg/dL and the TP ([…], time 14 day) was 5.8 g/dL. It also gave a gamma-GTP ([…], time 14 day) of 0.8 IU/L, an A/G ([…], time 28 day) of 1.4 and an ALP ([…], time 28 day) of 741.4 IU/L. It also gave an ALT ([…], time 28 day) of 41 IU/L, an AST ([…], time 28 day) of 68.4 IU/L and a BUN ([…], time 28 day) of 14.6 mg/dL. For the same compound, the CRE ([…], time 28 day) was 0.4 mg/dL, the Ca ([…], time 28 day) was 10.3 mg/dL and the Cl ([…], time 28 day) was 102.2 meq/L. For the same compound, the DBIL ([…], time 28 day) was 0.084 mg/dL, the GLC ([…], time 28 day) was 207.8 mg/dL and the IP ([…], time 28 day) was 6.1 mg/dL. The K ([…], time 28 day) was 3.9 meq/L, the LDH ([…], time 28 day) was 165.8 IU/L and the Na ([…], time 28 day) was 140.4 meq/L. It also gave a PL ([…], time 28 day) of 134 mg/dL, an RALB ([…], time 28 day) of 3.4 g/dL and a TBIL ([…], time 28 day) of 0.1 mg/dL. It also gave a TC ([…], time 28 day) of 61.6 mg/dL, a TG ([…], time 28 day) of 121.6 mg/dL and a TP ([…], time 28 day) of 5.9 g/dL. For the same compound, the gamma-GTP ([…], time 28 day) was 0.8 IU/L.
